# Data: patent US11464750B2, “Anticancer agent and use thereof” (priority 2017, dated 2022)
# Entries after “also recorded” stand apart in the source; their conditions may differ.
# Columns and labels:
# Type in all cases: cell-based, human
# p-GSK-3β (Ser^9) = assay: Western blotting, p-GSK-3β (Ser9), JeKo-1 cells; conditions: 0.5 μM, entire cell
# Description: (§1) Specifically, first, JeKo-1 cells were cultured for 0 (control), 12, 24, and 48 hours in the presence of 0.5 μM of 3EZ,20Ac-ingenol. In addition, Panc-1 cells were cultured for 0 (control), 12, 24, and 48 hours in the presence of 3 μM of 3EZ,20Ac-ingenol.
# Subsequently, abundances of GSK-3β and p-GSK-3β in the respective cells were analyzed by Western blotting using an anti-GSK-3β antibody (Cell Signaling Technology) and an anti-p-GSK-3β (Ser^9) antibody (Cell Signaling Technology). Furthermore, as a loading control, actin protein was detected using an anti-actin antibody (Sigma).
# BALL-1 cells = assay: Cell cycle analysis by flow cytometry; conditions: 0.5 μM
# Description: Specifically, BALL-1 cells were treated with 3EZ,20Ac-ingenol at a final concentration of 0.5 μM for 6, 12, 24, and 48 hours, and then a phase of a cell cycle was analyzed using flow cytometry. In addition, cells that were not treated with 3EZ,20Ac-ingenol were used as controls.
# PTEN protein = assay: Western blotting, PTEN protein, Panc-1 cells; conditions: 3 μM
# Description: as §1
# Subsequently, abundances of PTEN protein in entire cell fractions, nuclear fractions, and cytoplasm fractions of the respective cells were analyzed by Western blotting using an anti-PTEN antibody (Santa Cruz). Furthermore, as a loading control, actin protein was detected using an anti-actin antibody (Sigma).
# p53 protein = assay: Western blotting, p53 protein, Panc-1 cells; conditions: 3 μM, 12 hours until 48 hours after treatment
# Description: (§2) Specifically, JeKo-1 cells were cultured for 0 (control), 12, 24, and 48 hours in the presence of 0.5 μM of 3EZ,20Ac-ingenol. In addition, Panc-1 cells were cultured for 0 (control), 12, 24, and 48 hours in the presence of 3 μM of 3EZ,20Ac-ingenol.
# (§3) Subsequently, ATR protein, p53 protein, and phosphorylated p53 (hereinafter also referred to as “p-p53”) protein in the respective cells were respectively detected using an anti-ATR antibody (Cell Signaling Technology), an anti-p53 antibody (Santa Cruz), and an anti-p-p53 antibody (Cell Signaling Technology). Furthermore, as a loading control, actin protein was detected using an anti-actin antibody (Sigma).
# [1] = test system: phosphorylated p53 (p-p53) protein; assay: Western blotting, phosphorylated p53, Panc-1 cells; conditions: 3 μM
# Description: as §2, §3
# TKG0377 cells = assay: Cell Death Detection ELISA, TKG0377; conditions: 0.5 μM, 72 hours
# Description: The induction of apoptosis by 3EZ,20Ac-ingenol treatment was examined by detecting histone-binding DNA fragmentation in the cytoplasm using a Cell Death Detection ELISA kit (Roche Applied Science).
# Specifically, BALL-1 cells, TKG0210 cells, and TKG0377 cells were inserted into tubes at 5×10^4 cells/well/200 μL, and incubated for 6, 12, 24, 48, and 72 hours in the presence of 3EZ,20Ac-ingenol at a final concentration of 0.5 μM. Subsequently, the respective cells were lysed in a lysis buffer. Subsequently, the supernatant of cell debris of the respective cells was collected and transferred to an ELISA plate, and an absorbance at a wavelength of 405 nm was measured to measure the induction of apoptosis.
# [2] = test system: phosphorylated Akt (Ser^473); assay: Western blotting, p-Akt (Ser473), BALL-1 cells; conditions: 0.5 μM
# Description: The effect of 3EZ,20Ac-ingenol treatment on a PI3K/Akt signaling pathway was examined. Specifically, BALL-1 cells, TKG0210 cells, and TKG0377 cells were cultured for 48 hours in the presence of 3EZ,20Ac-ingenol at a final concentration of 0.5 μM, and by Western blotting using an anti-p-Akt (Ser^473) antibody (Cell Signaling Technology), phosphorylation of the 473th serine residue of an Akt protein in respective fractions of the entire cell, a nucleus, and a cytoplasm was analyzed. In addition, cells cultured in the absence of 3EZ,20Ac-ingenol were used as controls.
# The effect of 3EZ,20Ac-ingenol treatment on PTEN, p-PTEN, and p-Akt of BALL-1 cells was examined. First, BALL-1 cells were cultured for 3, 6, 12, 24, and 48 hours in the presence of 3EZ,20Ac-ingenol at a final concentration of 0.5 μM, and by Western blotting using an anti-PTEN antibody (Santa Cruz), an anti-p-PTEN (Ser^380/Thr^382/383) antibody (Santa Cruz), and an anti-p-Akt (Ser^473) antibody (Cell Signaling Technology), abundances of PTEN, p-PTEN, and p-Akt in the entire cell fraction were analyzed. In addition, cells cultured in the absence of 3EZ,20Ac-ingenol were used as controls.
# BALL-1 cells, TKG0210 cells, and TKG0377 cells were cultured for 24 and 48 hours in the presence of 3EZ,20Ac-ingenol at a final concentration of 0.5 μM, and abundances of p-Akt in the nuclear fraction and the cytoplasm fraction were analyzed by Western blotting. In addition, respective cells cultured in the absence of 3FZ,20Ac-ingenol were used as controls.
# The effect of 3EZ,20Ac-ingenol treatment on PTEN and p-Akt was examined using siRNA against PTEN. First, BALL-1 cells were cultured for 12, 24, and 48 hours in the presence of 3EZ,20Ac-ingenol at a final concentration of 0.5 μM, and an abundance of p-Akt was analyzed by Western blotting in the same manner as in Experimental Example 11. Cells cultured in the absence of 3EZ,20Ac-ingenol were used as controls.
# Subsequently, siRNA against PTEN (“ON-TARGET Plus Human PTEN (5728) siRNA-SMARTpool,” GE Dharmacon) was introduced into BALL-1 cells at a final concentration of 50 nM and incubated for 48 hours. Subsequently, a cell medium was replaced with a new medium and cultured for 12, 24, and 48 hours in the presence or absence of 3EZ,20Ac-ingenol at a final concentration of 0.5 μM, and by Western blotting using an anti-PTEN antibody (Santa Cruz) and an anti-p-Akt (Ser^473) antibody (Cell Signaling Technology), abundances of PTEN protein and p-Akt were analyzed.
smiles,measurement,setting,value
"CCCCC/C=C\C=C\C(=O)O[C@H]1C(C)=C[C@]23C(=O)[C@@H](C=C(COC(C)=O)[C@@H](O)[C@]12O)[C@H]1[C@@H](C[C@H]3C)C1(C)C [3EZ,20Ac-ingenol, 3-O-(2′E,4′Z-decadienoyl)-20-O-acetylingenol]",p-GSK-3β (an inactive type),p-GSK-3β (Ser^9),a decrease in p-GSK-3β (an inactive type) was observed
same,proportion of S-phase cells,BALL-1 cells; after 6 hours,68%
same,proportion of G2/M-phase cells,BALL-1 cells; after 12 hours and 24 hours,about 3%
same,proportion of S-phase cells,BALL-1 cells; after 12 hours and 24 hours,75%
same,proportion of G1-phase cells,BALL-1 cells; after 24 hours,about 19%
same,abundance of PTEN protein,"PTEN protein; cytoplasm fraction, 12 hours to 24 hours",an increase in abundance of PTEN protein in the cytoplasm fraction was observed
same,abundance of PTEN protein,"PTEN protein; cytoplasm fraction, 48 hours",a decrease in abundance of PTEN protein was observed
same,abundance of PTEN protein,"PTEN protein; entire cell fraction, 12 hours until 48 hours",an abundance of PTEN protein increased
same,abundance of PTEN protein,"PTEN protein; nuclear fraction, 12 hours to 24 hours",an increase in abundance of PTEN protein in the nuclear fraction was observed
same,expression level of p53 protein,p53 protein,an increase in expression level of p53 protein was recognized
same,phosphorylation of p53,"[1]; 12 hours after treatment, entire cells",phosphorylation of p53 was observed
same,amount of phosphorylated p53 protein,[1]; nuclear fraction and cytoplasm fraction,the amount of phosphorylated p53 protein increased
same,amount of fragmented DNA (apoptosis),TKG0377 cells,almost no fragmented DNA was detected
same,abundance of p-Akt,"[2]; 3 to 48 hours, entire cell fraction",down-regulation of p-Akt abundance was observed
same,abundance of p-Akt,[2]; 24 hours after the start of treatment (Experimental Example 16),an abundance of p-Akt in the BALL-1 cells decreased
same,abundance of p-Akt,"[2]; 24 hours, nuclear fraction",a moderate decrease in abundance of p-Akt was observed
same,abundance of p-Akt,"[2]; 48 hours, cytoplasm fraction",slightly reduced; also recorded: a slight decrease in abundance of p-Akt was observed
same,abundance of p-Akt,"[2]; 48 hours, entire cell",a decrease in abundance of phosphorylated Akt
same,abundance of p-Akt,"[2]; 48 hours, nuclear fraction",significantly decreased; also recorded: a further decrease in abundance of p-Akt
same,abundance of p-Akt,"[2]; cells with siRNA against PTEN introduced, after 12 hours",an increase in abundance of p-Akt was observed
same,abundance of p-Akt,"[2]; cells with siRNA against PTEN introduced, after 24 hours and 48 hours",a decrease in abundance of p-Akt was observed
